# Assay results reported in US5243027A, “Method of preparing angiotensin converting enzyme inhibitors” (Unitika, Ltd., priority 1990, dated 1993).
# No end group written: not given here.
# Molecular target: T1, angiotensin converting enzyme (Oryctolagus cuniculus, UniProt P12822)
# T1 construct: The supernatant was dialyzed against the same buffer to remove low-molecular weight substances resulting in an angiotensin converting enzyme solution; tissue Sigma Co; host or cells: rabbit lung (acetone-dried preparation)
# T1 sequence (P12822 34-1310): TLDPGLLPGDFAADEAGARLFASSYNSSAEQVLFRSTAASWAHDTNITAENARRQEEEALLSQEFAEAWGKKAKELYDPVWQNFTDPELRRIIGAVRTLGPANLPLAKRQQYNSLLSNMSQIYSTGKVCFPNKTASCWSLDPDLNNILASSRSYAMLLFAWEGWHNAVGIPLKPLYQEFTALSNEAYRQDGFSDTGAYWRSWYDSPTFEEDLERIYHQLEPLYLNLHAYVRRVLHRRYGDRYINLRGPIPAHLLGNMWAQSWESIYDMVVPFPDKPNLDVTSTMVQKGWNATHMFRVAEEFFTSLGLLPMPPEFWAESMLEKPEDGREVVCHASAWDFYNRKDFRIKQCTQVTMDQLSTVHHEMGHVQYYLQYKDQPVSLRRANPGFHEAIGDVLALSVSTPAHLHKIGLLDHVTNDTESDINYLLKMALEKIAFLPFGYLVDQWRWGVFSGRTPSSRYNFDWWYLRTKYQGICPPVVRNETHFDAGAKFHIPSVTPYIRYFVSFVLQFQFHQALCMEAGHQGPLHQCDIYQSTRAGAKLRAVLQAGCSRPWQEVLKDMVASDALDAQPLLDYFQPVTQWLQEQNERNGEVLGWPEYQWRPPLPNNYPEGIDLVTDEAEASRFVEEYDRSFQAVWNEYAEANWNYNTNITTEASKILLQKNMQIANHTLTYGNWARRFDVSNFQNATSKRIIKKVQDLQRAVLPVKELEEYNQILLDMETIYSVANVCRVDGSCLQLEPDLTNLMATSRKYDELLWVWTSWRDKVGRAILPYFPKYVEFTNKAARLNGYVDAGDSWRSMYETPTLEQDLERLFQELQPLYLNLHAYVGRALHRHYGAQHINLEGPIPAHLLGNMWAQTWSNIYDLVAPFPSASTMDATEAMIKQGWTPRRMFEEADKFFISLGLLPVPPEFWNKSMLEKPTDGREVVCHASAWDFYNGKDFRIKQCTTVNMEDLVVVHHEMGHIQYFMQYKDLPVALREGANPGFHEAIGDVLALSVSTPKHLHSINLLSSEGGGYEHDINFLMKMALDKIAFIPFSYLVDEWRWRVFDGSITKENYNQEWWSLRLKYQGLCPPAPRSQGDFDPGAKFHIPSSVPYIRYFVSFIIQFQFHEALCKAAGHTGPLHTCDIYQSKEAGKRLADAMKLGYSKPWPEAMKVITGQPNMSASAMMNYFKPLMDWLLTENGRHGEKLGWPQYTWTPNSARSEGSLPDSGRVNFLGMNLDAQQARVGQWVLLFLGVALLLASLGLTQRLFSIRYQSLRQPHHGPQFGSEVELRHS
# Experiment: Determination of angiotensin converting enzyme inhibitory activity (method of Cushmann et al., hippuryl-L-histidine-L-leucine substrate)
# Format: biochemical
# Conditions: rabbit lung enzyme, 37° C., 30 minutes, pH 8.3; peptides isolated from Bacillus stearothermophilus hydrolysate; read-out: IC50 (concentration of the sample showing 50% inhibition) (converted)
# Method: Angiotensin converting enzyme inhibitory activity during isolation and purification was determined using the method of Cushmann et al., Biochem. Pharacol., Vol. 20, pp. 1637-1648 (1971).
# A commercially available acetone-dried preparation of rabbit lungs (product of Sigma Co.) was dissolved in a 50 mM potassium phosphate buffer solution (pH=8.3) at 4° C. and the solution was centrifuged at 37,000×g for 30 minutes. The supernatant was dialyzed against the same buffer to remove low-molecular weight substances resulting in an angiotensin converting enzyme solution.
# Hippuryl-L-histidine-L-leucine (product of Peptide Kenkyusho) was added to a 0.1M potassium phosphate buffer solution (pH=8.3) containing 0.3M NaCl to prepare a 2.5 mM enzyme substrate solution. The above-prepared angiotensin converting enzyme, water and a test sample were added to the substrate solution in a final volume of 0.25 ml and the system was allowed to react at 37° C. for 30 minutes. Then, 0.25 ml of 1N HCl was added thereto to stop the reaction and 1.5 ml of ethyl acetate was added to extract released hippuric acid. A 1 ml aliquot of the ethyl acetate extract was evaporated to dryness. To the residue was added 1 ml of distilled water and the absorbance at 228 nm was measured to determine the amount of hippuric acid.
# Percent inhibition was calculated from the above-measured absorbance (A) and an absorbance of a blank (B) according to the following equation: [formula] The concentration of the sample showing 50% inhibition was taken as IC50.
row,IC50 [µM],Sequence
1,35,"AYIASKGL [(c), Ala-Tyr-Ile-Ala-Ser-Lys-Gly-Leu]"
2,65.7,"GKEIIVKAER [(a), Gly-Lys-Glu-Ile-Ile-Val-Lys-Ala-Glu-Arg]"
3,6.69,"GKMVKVVSWY [(b), Gly-Lys-Met-Val-Lys-Val-Val-Ser-Trp-Tyr]"
